Measured values: PMC7010297, “How the initiating ribosome copes with ppGpp to translate mRNAs” (PLoS Biology, 2020)
Values joined by “and” are separate entries in the source; they are usually repeats but may differ in a detail not shown here. Identical values can stand only once.

Columns and labels:
[1] = target: T1, 30S IC (30S-bound IF2, Bpy-tRNAi) (Escherichia coli, UniProt P0A705); test: 30S IC formation measured by MST at increasing concentrations of IF2 with guanosine nucleotides; assay type: binding; details: Fig 2A
T1 construct: 6xHis (N); made in house
From the text: To monitor the interaction of initiator tRNA and 30S ribosomal subunits, we used Microscale Thermophoresis (MST) with a fluorescently labelled initiator tRNA (Bpy-tRNAi) (Fig 1B). MST allows to measure fluorescence in a constrained space. Changes on the readout derive from molecular drifts resulting from small thermal equilibrium perturbations. Upon equilibrium perturbations, the patterns of Bpy-tRNAi migration away from the observation space are related to bound and unbound states (Fig 1B). […] On the contrary, a decrease in thermophoresis indicated the dissociation of Bpy-tRNAi. The relation between fluorescence measured at both equilibriums (Ff to Fi, after and prior to the perturbation, respectively) as a function of ligand concentration allowed to determine dissociation constants of the interaction (Fig 1C).
(§1) Continuous lines indicate nonlinear regression fittings with a quadratic equation. Three measurements were performed; mean and standard deviation are plotted (S1 Data). (B) as (A) to measure the concentration dependence for each tested guanosine nucleotide at constant IF2 (1 μM). […] Continuous lines show best fits using exponential functions. (D) Formation of 70S IC as measured by Bpy-tRNAi accommodation in the P site of the ribosome; 0.1 μM 30S ICs were formed with Bpy-tRNAi and rapidly mixed with 0.3 μM 50S subunits on a stopped-flow apparatus as described in [14]. Colors are as in (C). Continuous lines show best fits using an exponential function for a single reaction step. Each stopped-flow trace results from the mean of 5 to 7 replicates.

[2] = target: T2, 70S pre-IC (50S joining to 30S IC) (Escherichia coli, UniProt P0A705); test: 70S pre-IC formation by light scattering, stopped-flow; assay type: biochemical; parameters: K1, best-fit value / k2, best-fit value: unit not given here; details: for kfast (s-1) Avg: light scattering
T2 construct: 6xHis (N); made in house
Procedure: as §1
(A) Scheme of 70S IC formation. […] Time traces were analyzed by nonlinear regression with exponential terms. […] Formation of 70S IC, as measured by Bpy-tRNAi accommodation in the absence (F) or presence of 200 μM ppGpp (G). Time traces were analyzed by nonlinear regression with one exponential term. […] Continuous lines show best fits using an exponential function for a single reaction step. All time traces are mean values of 5 to 10 replicates. Bar graphs show mean and standard errors (error bars) derived from the nonlinear regression fitting (D,E,H,I) (S1 Data).
To measure 70S pre-IC formation, a SX-20 stopped-flow instrument (Applied Photophysics, Leatherhead, UK) was set up for LS recording with an excitation wavelength of 430 nm. Scattered light was measured at an angle of 90° without a filter. Pseudo first-order conditions were approximated by using ≥3-fold excess of 50S subunits over 30S ICs; 0.2 μM 30S ICs were rapidly mixed in the instrument with 0.6 μM 50S at 25 °C. Bpy-tRNAi accommodation was measured essentially as described elsewhere. Briefly, 0.2 μM 30S ICs were formed using Bpy-tRNAi and rapidly mixed with 0.6 μM 50S at 25 °C. Fluorescence was excited at 470 nm and measured after a 495-nm longpass filter. Individual traces (6–11 traces) were averaged, and the resulting kinetic curve was approximated by single (F = A0 + A1*exp (-kapp1*t)) or double (F = A0 + A1*exp (-kapp1*t) + A2*exp (-kapp2*t)) exponential fit using Graphpad Prism 6.0 software (GraphPad, San Diego, California).

IF2 = target: T3, IF2 (Escherichia coli, UniProt P0A705); test: IF2-Bpy-tRNAi-GNP ternary complex formation by MST; assay type: binding; details: S2A Fig
T3 construct: 6xHis (N); made in house
Procedure: Supplementary file pbio.3000593.s002.pdf: S2 Fig IF2-Bpy-tRNAi complex formation as a function of guanosine nucleotides. (A) IF2 concentration dependencies for Bpy-tRNAi binding in the presence of 0.5 mM of the indicated guanosine nucleotides to build IF2-tRNA-GNP ternary complexes (TCs). […] Three to five measurements were performed; mean and standard deviation are plotted (S1 Data). […] (PDF) Click here for additional data file.

[3] = mInfA, fit Y=A0+A1*exp(-K1*x)+k2*x
[4] = mMF1, fit Y=A0+A1*exp(-K1*x)+k2*x
[5] = mTufA, fit Y=A0+A1*exp(-K1*x)+k2*x

T3 sequence (P0A705 whole entry): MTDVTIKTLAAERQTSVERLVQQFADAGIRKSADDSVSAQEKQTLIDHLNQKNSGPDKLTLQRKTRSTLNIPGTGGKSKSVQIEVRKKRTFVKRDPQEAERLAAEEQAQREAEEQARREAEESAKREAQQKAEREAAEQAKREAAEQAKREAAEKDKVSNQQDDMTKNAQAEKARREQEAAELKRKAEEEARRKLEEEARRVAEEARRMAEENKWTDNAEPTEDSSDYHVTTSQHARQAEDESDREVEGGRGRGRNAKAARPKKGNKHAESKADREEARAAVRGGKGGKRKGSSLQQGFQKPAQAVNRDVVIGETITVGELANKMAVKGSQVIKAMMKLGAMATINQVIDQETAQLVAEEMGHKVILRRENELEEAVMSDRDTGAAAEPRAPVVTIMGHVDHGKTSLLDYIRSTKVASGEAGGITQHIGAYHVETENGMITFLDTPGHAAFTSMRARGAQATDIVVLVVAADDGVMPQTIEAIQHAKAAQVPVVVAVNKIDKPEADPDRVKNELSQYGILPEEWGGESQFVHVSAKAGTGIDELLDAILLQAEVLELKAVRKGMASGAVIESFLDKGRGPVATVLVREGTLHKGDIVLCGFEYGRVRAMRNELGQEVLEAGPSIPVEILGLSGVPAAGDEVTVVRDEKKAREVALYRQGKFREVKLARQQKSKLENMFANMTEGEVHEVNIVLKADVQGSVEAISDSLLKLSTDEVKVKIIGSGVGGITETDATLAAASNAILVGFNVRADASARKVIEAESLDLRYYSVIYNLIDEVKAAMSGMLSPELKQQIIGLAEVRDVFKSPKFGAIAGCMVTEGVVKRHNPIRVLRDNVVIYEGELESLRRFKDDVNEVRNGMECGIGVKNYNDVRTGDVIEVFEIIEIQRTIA
T1 sequence (P0A705 whole entry, looked up): as the sequence (P0A705 whole entry) above
T2 sequence (P0A705 whole entry, looked up): as the sequence (P0A705 whole entry) above

For `Nc1nc2c(ncn2[C@@H]2O[C@H](COP(=O)(O)OP(=O)(O)O)[C@@H](O)[C@H]2O)c(=O)[nH]1` [GDP, guanosine diphosphate], the “MST Average” value ([1]; IF2 0.16 µM) was 936.66 a.u, the “MST Replicates (a.u.)” value ([1]; IF2 0.16 µM, in the presence of the nucleotide) was 938.79 a.u. and 935.06 a.u. and 936.14 a.u and the “MST Average” value ([1]; IF2 0.31 µM) was 942.67 a.u. The “MST Replicates (a.u.)” value ([1]; IF2 0.31 µM) was 943.24 a.u. and 941.18 a.u. and 943.58 a.u, the “MST Average” value ([1]; IF2 0.63 µM) was 949.91 a.u and the “MST Replicates (a.u.)” value ([1]; IF2 0.63 µM) was 951.36 a.u. and 947.80 a.u. and 950.56 a.u. For the same compound, the “MST Average” value ([1]; IF2 1.25 µM) was 961.16 a.u, the “MST Replicates (a.u.)” value ([1]; IF2 1.25 µM) was 962.03 a.u. and 959.55 a.u. and 961.91 a.u and the “MST Average” value ([1]; IF2 2.50 µM) was 966.51 a.u. The “MST Replicates (a.u.)” value ([1]; IF2 2.50 µM) was 967.31 a.u. and 965.43 a.u. and 966.81 a.u, the “MST Average” value ([1]; IF2 5.00 µM) was 968.29 a.u and the “MST Replicates (a.u.)” value ([1]; IF2 5.00 µM) was 968.72 a.u. and 967.06 a.u. and 969.08 a.u. For the same compound, the “efficiency (amplitude) of 70S pre-IC formation” value ([2]; 0.2 mM nucleotide, no GTP) was “reduced efficiencies”, the “rapid 70S pre-IC formation in the absence of GTP” value ([2]; 0.2 mM nucleotide, noncompetitive (S6 Fig)) was “some transitions” and the “A0, best-fit value” [2, 3] was 1.03. The “K1, best-fit value” [2, 3] was 1.58, the “k2, best-fit value” [2, 3] was 0.0017 and 0.00169 and the “A0, best-fit value” [2, 4] was 1.04. The “K1, best-fit value” [2, 4] was 2.79, the “k2, best-fit value” [2, 4] was 0.001 and the “LS amplitude (a.u.) Avg” value ([2]; mRNA mInfA) was 0.028 a.u. For the same compound, the “kfast (s-1) Avg” value ([2]; mRNA mInfA) was 1.58 s⁻¹, the “LS amplitude (a.u.) Avg” value ([2]; mRNA mMF1) was 0.027 a.u and the “kfast (s-1) Avg” value ([2]; mRNA mMF1) was 2.79 s⁻¹. For the same compound, the “LS amplitude (a.u.) Avg” value ([2]; mRNA mTufA) was 0.058 a.u, the “kfast (s-1) Avg” value ([2]; mRNA mTufA) was 3.39 s⁻¹ and the “A0, best-fit value” [2, 5] was 1.07. For the same compound, the “K1, best-fit value” [2, 5] was 3.39, the “k2, best-fit value” [2, 5] was 0.0016 and 0.00162 and the “MST Average” value (IF2; IF2 0.08 µM) was 942.60 a.u. The “MST Replicates” value (IF2; IF2 0.08 µM) was 949.60 a.u. and 944.98 a.u. and 933.23 a.u, the “MST Average” value (IF2; IF2 0.16 µM) was 942.82 a.u and the “MST Replicates” value (IF2; IF2 0.16 µM) was 948.93 a.u. and 934.15 a.u. and 945.38 a.u. The “MST Average” value (IF2; IF2 0.31 µM) was 943.82 a.u, the “MST Replicates” value (IF2; IF2 0.31 µM) was 946.47 a.u. and 934.49 a.u. and 950.50 a.u and the “MST Average” value (IF2; IF2 0.63 µM) was 944.11 a.u. The “MST Replicates” value (IF2; IF2 0.63 µM) was 935.16 a.u. and 946.20 a.u. and 950.97 a.u, the “MST Average” value (IF2; IF2 1.25 µM) was 945.61 a.u and the “MST Replicates” value (IF2; IF2 1.25 µM) was 951.42 a.u. and 947.72 a.u. and 937.68 a.u. The “MST Average” value (IF2; IF2 2.50 µM) was 948.90 a.u, the “MST Replicates” value (IF2; IF2 2.50 µM) was 941.84 a.u. and 953.50 a.u. and 951.35 a.u and the “MST Average” value (IF2; IF2 5.00 µM) was 954.49 a.u. For the same compound, the “MST Replicates” value (IF2; IF2 5.00 µM) was 948.07 a.u. and 955.91 a.u. and 959.48 a.u, the “MST Average” value (IF2; IF2 10.00 µM) was 962.55 a.u and the “MST Replicates” value (IF2; IF2 10.00 µM) was 958.33 a.u. and 964.33 a.u. and 964.97 a.u. The “MST Average” value (IF2; IF2 20.00 µM) was 973.27 a.u, the “MST Replicates” value (IF2; IF2 20.00 µM) was 973.71 a.u. and 974.19 a.u. and 971.91 a.u and the “MST Average” value (IF2; IF2 40.00 µM) was 980.27 a.u. The “MST Replicates” value (IF2; IF2 40.00 µM) was 984.66 a.u. and 983.20 a.u. and 972.95 a.u.

For `Nc1nc2c(ncn2[C@@H]2O[C@H](COP(=O)(O)OP(=O)(O)OP(=O)(O)O)[C@@H](O)[C@H]2O)c(=O)[nH]1` [GTP, guanosine triphosphate], the “MST Average” value ([1]; IF2 0.16 µM) was 1029.29 a.u, the “MST Average” value ([1]; IF2 0.31 µM) was 1076.43 a.u and the “MST Average” value ([1]; IF2 0.63 µM) was 1093.32 a.u. For the same compound, the “MST Average” value ([1]; IF2 1.25 µM) was 1094.97 a.u, the “MST Average” value ([1]; IF2 2.50 µM) was 1077.58 a.u and the “MST Average” value ([1]; IF2 5.00 µM) was 1077.76 a.u. For the same compound, the “kapp of 70S pre-IC formation (LS)” value ([2]; 30S complexes formed with 0.2 mM nucleotide, mixed with 50S subunits) was 2.9 ± 0.3 s^–1, the “A0, best-fit value” [2, 3] was 1.08 and the “K1, best-fit value” [2, 3] was 1.97. For the same compound, the “k2, best-fit value” [2, 3] was 0.0017 and 0.00173, the “A0, best-fit value” [2, 4] was 1.05 and the “A1, best-fit value” [2, 4] was -0.035. For the same compound, the “K1, best-fit value” [2, 4] was 1.98, the “k2, best-fit value” [2, 4] was 0.000317 and the “LS amplitude (a.u.) Avg” value ([2]; mRNA mInfA) was 0.062 a.u. The “LS amplitude (a.u.) Avg” value ([2]; mRNA mMF1) was 0.035 a.u, the “kfast (s-1) Avg” value ([2]; mRNA mMF1) was 1.98 s⁻¹ and the “LS amplitude (a.u.) Avg” value ([2]; mRNA mTufA) was 0.083 a.u. The “kfast (s-1) Avg” value ([2]; mRNA mTufA) was 5.20 s⁻¹, the “A0, best-fit value” [2, 5] was 1.11 and the “K1, best-fit value” [2, 5] was 5.20. The “k2, best-fit value” [2, 5] was 0.000653, the “MST Average” value (IF2; IF2 0.08 µM) was 945.53 a.u and the “MST Replicates” value (IF2; IF2 0.08 µM) was 952.20 a.u. and 948.28 a.u. and 936.11 a.u. The “MST Average” value (IF2; IF2 0.16 µM) was 947.39 a.u, the “MST Replicates” value (IF2; IF2 0.16 µM) was 938.55 a.u. and 949.51 a.u. and 954.10 a.u and the “MST Average” value (IF2; IF2 0.31 µM) was 948.97 a.u. The “MST Replicates” value (IF2; IF2 0.31 µM) was 951.38 a.u. and 955.20 a.u. and 940.31 a.u, the “MST Average” value (IF2; IF2 0.63 µM) was 950.03 a.u and the “MST Replicates” value (IF2; IF2 0.63 µM) was 955.50 a.u. and 952.44 a.u. and 942.15 a.u. The “MST Average” value (IF2; IF2 2.50 µM) was 955.81 a.u, the “MST Replicates” value (IF2; IF2 2.50 µM) was 960.19 a.u. and 957.37 a.u. and 949.88 a.u and the “MST Average” value (IF2; IF2 5.00 µM) was 963.92 a.u. For the same compound, the “MST Replicates” value (IF2; IF2 5.00 µM) was 963.66 a.u. and 965.85 a.u. and 962.23 a.u, the “MST Average” value (IF2; IF2 10.00 µM) was 973.12 a.u and the “MST Replicates” value (IF2; IF2 10.00 µM) was 974.68 a.u. and 972.27 a.u. and 972.40 a.u. For the same compound, the “MST Average” value (IF2; IF2 20.00 µM) was 982.93 a.u, the “MST Replicates” value (IF2; IF2 20.00 µM) was 983.50 a.u. and 982.36 a.u and the “MST Average” value (IF2; IF2 40.00 µM) was 989.70 a.u. The “MST Replicates” value (IF2; IF2 40.00 µM) was 993.21 a.u. and 991.95 a.u. and 983.94 a.u.
